The values that follow come from patent publication US10364244B2, “Crystal form of pyrroloquinoline quinone sodium salt and preparation method and use thereof” (Zhejiang Hisun Pharmaceutical Co., Ltd., priority 2015, dated 2019).

Data set [1] can be described thus: Hygroscopicity test (25° C., humidity 75%, 24 h). The format is physicochemical. Conditions: for Rate of moisture absorption: 1 g sample, temperature of 25° C., humidity of 75%; for hygroscopicity (conclusion in words from the hygroscopicity test): 25° C., humidity 75%. As for the experimental part:
Hygroscopicity test. Test Conditions: watch glasses were placed in the environment at the temperature of 25° C. and the humidity of 75% for 24 h, then for each of the following samples, 1 g was weighed, and the weighted samples were quickly placed in the environment at the temperature of 25° C. and the humidity of 75% for 24 h to absorb moisture sufficiently.

The conditions of data set [2]: at 65%-85% RH; cited from earlier work.

The structures appear in SMILES notation.

With `O=C(O)c1cc(C(=O)O)c2c(n1)C(=O)C(=O)c1cc(C(=O)O)[nH]c1-2.[Na]` [Crystal form IV, pyrroloquinoline quinone monosodium salt], in data set [1], the “Rate of moisture absorption” value was 0% and the “hygroscopicity (conclusion in words from the hygroscopicity test)” value is listed as “not hygroscopic”.
As for `O=C(O)c1cc(C(=O)O)c2c(n1)C(=O)C(=O)c1cc(C(=O)O)[nH]c1-2.[Na]` [crystal form A in CN201210452297.6, pyrroloquinoline quinone sodium salt], the hygroscopicity result in data set [2] is “less than 3%”.
`O=C(O)c1cc(C(=O)O)c2c(n1)C(=O)C(=O)c1cc(C(=O)O)[nH]c1-2.[Na].[Na]` [Crystal form of the disodium salt in CN201080031945] [pyrroloquinoline quinone disodium salt, reference compound]: the “Rate of moisture absorption” value in data set [1] (disodium salt) came out at 0.85%. For the same molecule, the “hygroscopicity (conclusion in words from the hygroscopicity test)” value in data set [1] (listed as crystal form in CN201080031945, disodium salt) is “strongest hygroscopicity”.
Turning to `O=C(O)c1cc(C(=O)O)c2c(n1)C(=O)C(=O)c1cc(C(=O)O)[nH]c1-2.[Na].[Na]` [Crystal form I, pyrroloquinoline quinone disodium salt], in data set [1] (disodium salt), the “Rate of moisture absorption” value came out at 0% and the “hygroscopicity (conclusion in words from the hygroscopicity test)” value was “not hygroscopic”.
For the molecule `O=C(O)c1cc(C(=O)O)c2c(n1)C(=O)C(=O)c1cc(C(=O)O)[nH]c1-2.[Na].[Na]` [Crystal form II, pyrroloquinoline quinone disodium salt], the “Rate of moisture absorption” value in data set [1] (disodium salt) came out at 0.30%.
Turning to `O=C(O)c1cc(C(=O)O)c2c(n1)C(=O)C(=O)c1cc(C(=O)O)[nH]c1-2.[Na].[Na]` [Crystal form III, pyrroloquinoline quinone disodium salt], in data set [1] (disodium salt), the “Rate of moisture absorption” value amounted to 0% and the “hygroscopicity (conclusion in words from the hygroscopicity test)” value is “not hygroscopic”.
